According to patent publication US10611733B2, “Quinazolinone analogs and use of quinazolinone analogs for treating or preventing certain viral infections” (priority 2011, dated 2020):
Where two headings read alike, the source gives them in different places.

Experiments:
WNV antiviral assay = format: cell-based, West Nile Virus; conditions: read-out: TC50 (the source's name)
Description: (§1) The use of N-(2,3-dihydro-1H-inden-5-yl)-2-(4-oxo-3-phenyl-3,4-dihydroquinazolin-2-yl)thio) acetamide, a compound employed according to the present disclosure, for treating West Nile Virus has been disclosed. For example, please see Chung et al. A Cell Based Assay for the Identification of Lead Compounds with Anti-Viral Activity Against West Nile Virus, Probe Reports from the NIH Molecular Libraries Program[Internet]. Bethesda (Md.): National Center for Biotechnology Information (US); 2010-2010 Feb. 27 [updated 2010 Oct. 4], PMID: 21433390 [PubMed].

WNV = WNV antiviral assay; format: cell-based, West Nile Virus; conditions: West Nile virus
Description: as §1

[1] = HCV Con 1b (Replicon) RNA end-point; format: cell-based, Hepatitis C Virus; conditions: HCV Con 1b subgenomic replicon cell line; HCV Con 1b replicon, RNA end-point; read-out: TC50 (the source's name)
Description: (§2) The reduction in HCV was determined with two assays using viral RNA endpoints. […] This cell line expresses a subgenomic section of the HCV genome containing NS2a, NS2b, NS3a, NS3b, NS4a, NS4b, NS5a and NS5b.

HCV Con 1b (Replicon) = HCV Con 1b (Replicon) RNA end-point; format: cell-based, Hepatitis C Virus
Description: as §2

JEV = JEV cell based virus CPE reduction assay; parameters: species or system Japanese Encephalitis Virus; conditions: for CC50: read-out: TC50 (the source's name)
Description: as §1

[2] = JEV cell based virus CPE reduction assay; parameters: species or system Japanese Encephalitis Virus; conditions: read-out: TC50 (the source's name)
Description: as §1

HCV Con1b (Replicon) = HCV Con1b (Replicon) Luciferase end-point; format: cell-based, Hepatitis C Virus; conditions: for CC50: read-out: TC50 (the source's name)
[3] = HCV Con1b (Replicon) Luciferase end-point; format: cell-based, Hepatitis C Virus; conditions: HCV Con1b subgenomic replicon cell line, read-out: TC50 (the source's name)

## O=C(CSc1nc2ccccc2c(=O)n1-c1ccccc1)Nc1ccc2c(c1)CCC2 [Example C1]
WNV antiviral assay
  CC50: ≥ 100 µM
WNV
  IC50: 5 to 25 µM
[1]
  CC50: ≥ 100 µM
HCV Con 1b (Replicon); Hepatitis C virus, HCV Con 1b replicon, RNA end-point
  IC50: 5 to 25 µM
HCV Con 1b (Replicon); text statement referring to Table 1
  activity against Hepatitis C Virus: activity was observed

## Cc1csc(NC(=O)CSc2nc3ccccc3c(=O)n2-c2ccc(Cl)c(Cl)c2)n1 [Example C8, 2-(3-(3,4-dichlorophenyl)-4-oxo-3,4-dihydroquinazolin-2-ylthio)-N-(4-methylthiazol-2-yl)acetamide]
JEV; Japanese encephalitis virus
  IC50: 5 to 25 µM
[2]
  CC50: ≥ 100 µM
HCV Con1b (Replicon); Hepatitis C virus
  IC50: 1 to 5 µM
[3]
  CC50: ≥ 100 µM

## O=C(CSc1nc2cccc(F)c2c(=O)n1-c1ccccc1)Nc1ccc2c(c1)CCC2 [Example C15, 2-(5-fluoro-4-oxo-3-phenyl(3-hydroquinazolin-2-ylthio))-N-indan-5-ylacetamide]
HCV Con 1b (Replicon); HCV Con 1b replicon, RNA end-point
  IC50: 1 to 5 µM
HCV Con 1b (Replicon); HCV Con 1b replicon, RNA end-point, read-out: TC50 (the source's name)
  CC50: ≥ 100 µM
JEV
  IC50: 5 to 25 µM
  CC50: ≥ 100 µM

## COc1cccc2c(=O)n(-c3ccccc3)c(SCC(=O)Nc3ccc4c(c3)CCC4)nc12 [Example C17, N-indan-5-yl-2-(8-methoxy-4-oxo-3-phenyl(3-hydroquinazolin-2-ylthio))acetamide]
JEV
  IC50: 5 to 25 µM
  CC50: ≥ 100 µM
HCV Con1b (Replicon)
  IC50: 1 to 5 µM
  CC50: ≥ 100 µM

## Cc1csc(NC(=O)CSc2nc3ccccc3c(=O)n2-c2ccc(Cl)c(Cl)c2)n1 [Example C24, 2-[3-(3,4-dichlorophenyl)-4-oxo(3-hydroquinazolin-2-ylthio)]-N-(4-methyl(1,3-thiazol-2-yl))acetamide]
JEV
  IC50: 5 to 25 µM
  CC50: ≥ 100 µM
HCV Con1b (Replicon)
  IC50: 1 to 5 µM
  CC50: ≥ 100 µM
